Laboratory results reported in patent publication US9555135B2, “Cobalt-based MRI contrast agent and imaging system” (BOARD OF REGENTS, THE UNIVERSITY OF TEXAS SYSTEM, priority 2011, dated 2017).

Tests used:
[1] = Toxicity arm: single intraprostatic CoCl2-NAC injection, clinical pathology, gross and microscopic pathology; assay type: in vivo, rat
Description: (§1) A toxicity and pharmacokinetic study of intraprostatically-administered cobalt dichloride-N-acetyl cysteine (CoCl2-NAC) was conducted in a rat model by the Pharmaceutical Development Center in the Department of Veterinary Medicine and Surgery (DVMS) facilities, U.T.M.D. Anderson Cancer Center, (Houston, Tex.). CoCl2-NAC is a novel MRI marker for prostate brachytherapy under development for use in localization of implanted radioactive seeds under MRI. […] The purpose of this study was to evaluate the distribution and potential toxicity of Co-NAC systemic exposure secondary to potential leakage from in-situ rupture of the Co-NAC-ECAMs in a male rat model.
(§2) The volume of CoCl2-NAC injected (9 μl) was predetermined on the assumption of 80-120 seeds leaking into the human prostate following implantation and scaling to a 150 gram male rat model. Cobalt disposition in plasma and tissues and organ toxicity were evaluated. For the pharmacokinetic arm, 60 male rats (20/group) were assigned to two dose groups and a vehicle control group and administered 1% (low concentration) and 10% (high concentration) CoCl2-NAC or vehicle control as an injection into the prostate. Following dosing, one cohort of 5 animals from each dose-level was sacrificed at 5, 30, and 60 minutes and 6 hours following the end of drug administration. Specific tissues (spleen, heart, brain, prostate, lung, kidney, liver, gut) from all animals were harvested, blotted, and weighed. An additional 3 animals were administered the high concentration and were maintained individually in metabolic cages. Urine and feces were collected at the end of 60 min, 6 and 24 hr intervals on the day prior to dosing and post dosing the following day. All samples were analyzed for total cobalt content by inductively-coupled plasma (ICP) analysis. For the toxicity arm, 30 male rats (10/group) were assigned to two dose groups and a vehicle control group and administered 1% and 10% CoCl2-NAC or vehicle control injected into the prostate. Groups of animals were sacrificed and necropsied on Study Days 1 (24 hrs) and 14 and blood and tissues collected for evaluation of clinical pathology and organ toxicity.

[2] = T1-weighted MRI visualization of contrast agent in seeds in agarose phantom
Description: Initially, the titanium and acrylic seeds were custom designed to have an outer and inner diameter of 3 mm and 1.5 mm and an outer length and inner hollow length of 4.5 mm and 3.5 mm, respectively. After injection of the cobalt-chloride complex contrast (CoCl2-NAC) agent into the manufactured seeds, MRI was performed on the seeds and strand-like combinations. For the canine prostate experiments, standard nonradioactive titanium seeds were incorporated into a synthesized strand, with acrylic and glass tubes cut with an outer diameter of 0.8 mm and length of 5.5 mm, injected with the CoCl2-NAC agent ([…]), and closed on the ends with two polymer taps.
All studies involving animals or animal tissues were performed under an Institutional Animal Care and Use Committee-approved protocol. For this experiment, after completion of another investigator's in vivo experiments, a canine prostate was excised at necropsy, placed in normal saline, and fixed in agarose gel (10% by weight, Type-A, Sigma-Aldrich, St. Louis, Mo.). The ECAMs were subsequently inserted into the prostate and imaged using MRI. Similarly, the ECAMs were inserted into an in-house-manufactured agarose phantom for direct visualization. The signal intensities of the agarose and prostatic tissue were similar on T1 weighted MRI, allowing substantial preliminary assessment of the relative contrast of the ECAMs without a tissue-based phantom. 1.5-T MRI T1-weighted sequences for imaging marker experiments.
All studies were performed on a 1.5-T clinical MRI scanner (Excite HD, GE Healthcare Technologies, Waukesha, Wis.) equipped with a high-performance gradient hardware package (Cardiac Resonance Module) and multichannel, fast-receiver hardware. The maximal achievable slew rate was 120 mT/m/s, maximal amplitude was 23 mT/m, and receiver bandwidth was 500 kHz. For relaxation measurements, the samples were placed in a room temperature water bath and imaged using a quadrature knee coil. T1-weighted measurements used an inversion recovery spin-echo technique (repetition time [TR]/[…] [TE], 5,000 ms/10 ms; inversion time, 50-4,000 ms). The T2-weighted measurements used a spin echo sequence (TR, 5,000 ms; TE, 20-1,000 ms). T2*-weighted measurements used a multi-echo, fast, gradient echo acquisition (TR, 600 ms; TE, 2-57 ms, with an echo spacing of 3.3 ms). All imaging data were analyzed using in-house software written in MATLAB (MathWorks, Natick, Mass.). […]

[3] = Relaxivity measurements on 1.5-T clinical MRI scanner; assay type: physicochemical
Description: All studies were performed on a 1.5-T clinical MRI scanner (Excite HD, GE Healthcare Technologies, Waukesha, Wis.) equipped with a high-performance gradient hardware package (Cardiac Resonance Module) and multichannel, fast-receiver hardware. The maximal achievable slew rate was 120 mT/m/s, maximal amplitude was 23 mT/m, and receiver bandwidth was 500 kHz. For relaxation measurements, the samples were placed in a room temperature water bath and imaged using a quadrature knee coil. T1-weighted measurements used an inversion recovery spin-echo technique (repetition time [TR]/[…] [TE], 5,000 ms/10 ms; inversion time, 50-4,000 ms). The T2-weighted measurements used a spin echo sequence (TR, 5,000 ms; TE, 20-1,000 ms). T2*-weighted measurements used a multi-echo, fast, gradient echo acquisition (TR, 600 ms; TE, 2-57 ms, with an echo spacing of 3.3 ms). All imaging data were analyzed using in-house software written in MATLAB (MathWorks, Natick, Mass.). The MRI sequences used for the ex vivo experiments have previously been described (see, Shetty, A. M., et al., Journal of Magnetic Resonance Imaging, Vol. 26, pp. 1672-1677 (2007)) and used a high-resolution, three-dimensional, spoiled gradient recalled echo acquisition (TR/TE, 15.6 ms/2.5 ms; flip angle, 60°; voxel size, 0.4×0.4×0.8 mm, receiver bandwidth, 488.3 Hz/pixel). The large flip angle was used to accentuate the signal from the ECAMs (with lower T1-weighted relaxation times) against the background. The high bandwidth and short echo time were chosen to minimize susceptibility artifacts in the region of the titanium markers.
Relaxivity measurements were obtained using the slope of the weighted least-squares regression of the relaxation rate versus concentration. […] The ratio of the relaxivities were >1 (r2/r1=1.21±0.29), which is consistent with T1-weighted positive contrast agents.

[4] = Pharmacokinetic arm: cobalt disposition in plasma, tissues, urine and feces after intraprostatic CoCl2-NAC injection, total cobalt by ICP; assay type: in vivo, rat
Description: as §1
as §2, with “Groups of animals were sacrificed and necropsied on Study Days 1 (24 hrs) and 14 and blood and tissues collected for evaluation of clinical pathology and organ toxicity.” left out

androgen receptor = androgen receptor (Homo sapiens, UniProt P10275); conditions: concentration; cited from earlier work
Chain of androgen receptor (P10275 whole entry, species assumed): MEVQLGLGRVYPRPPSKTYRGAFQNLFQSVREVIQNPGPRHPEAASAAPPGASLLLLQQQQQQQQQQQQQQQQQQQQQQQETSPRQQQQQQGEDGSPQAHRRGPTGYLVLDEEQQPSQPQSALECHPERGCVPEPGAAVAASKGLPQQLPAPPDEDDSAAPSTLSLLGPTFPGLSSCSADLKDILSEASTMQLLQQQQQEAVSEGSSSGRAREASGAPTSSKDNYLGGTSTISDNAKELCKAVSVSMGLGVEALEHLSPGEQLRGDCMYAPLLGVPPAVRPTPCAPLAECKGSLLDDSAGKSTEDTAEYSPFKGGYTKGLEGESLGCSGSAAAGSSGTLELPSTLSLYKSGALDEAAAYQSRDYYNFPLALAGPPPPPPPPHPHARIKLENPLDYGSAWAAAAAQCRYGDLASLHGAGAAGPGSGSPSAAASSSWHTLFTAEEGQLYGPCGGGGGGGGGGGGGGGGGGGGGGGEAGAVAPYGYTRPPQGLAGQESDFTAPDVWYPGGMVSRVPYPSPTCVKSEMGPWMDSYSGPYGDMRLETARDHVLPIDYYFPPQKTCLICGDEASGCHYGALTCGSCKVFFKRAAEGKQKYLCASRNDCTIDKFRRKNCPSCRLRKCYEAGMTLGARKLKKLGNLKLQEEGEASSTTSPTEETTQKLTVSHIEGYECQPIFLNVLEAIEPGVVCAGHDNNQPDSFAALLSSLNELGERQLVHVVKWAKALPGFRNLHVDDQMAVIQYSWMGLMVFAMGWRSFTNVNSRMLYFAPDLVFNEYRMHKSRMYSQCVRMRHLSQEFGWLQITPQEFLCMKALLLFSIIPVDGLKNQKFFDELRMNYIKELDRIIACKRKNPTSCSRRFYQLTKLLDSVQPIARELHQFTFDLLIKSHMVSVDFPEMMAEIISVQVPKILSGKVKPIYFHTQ

Structure (SMILES) | alterations in group means of hematological or clinical chemistry parameters ([1]; 1% and 10% CoCl2-NAC, Study Days 1 and 14) | microscopic examination (histopathology) ([1]; 1% and 10% CoCl2-NAC, any of the tested dose levels) | test article-related morbidity or mortality ([1]; 1% and 10% CoCl2-NAC, intraprostatic, male rat) | no-observed-adverse-effect-level (NOAEL) ([1]; single intra-prostatic administration, male rat, highest dose tested) [% CoCl2-NAC solution] | test article-related adverse clinical signs ([1]; toxicology arm, 1% and 10% CoCl2-NAC) | visualization of acrylic and glass hollow seeds containing the agent ([2]; 0.5-5 μL of aqueous solution (0.3-10 wt. %), phantom, 1.5-T MRI) | visualization inside the titanium seed ([2]; T1-weighted MRI, phantom) | signal on T1-weighted MRI inside polymer seeds ([2]; concentrations of 0.5-10%, in phantom) | signal on three-dimensional T1-weighted spoiled gradient recalled acquisition, compared with the various agents tested ([2]; in phantom) | ratio of the relaxivities r2/r1 [3] | spin-lattice relaxivity (r1) ([3]; room temperature water bath) [mM⁻¹ s⁻¹] | spin-spin relaxivity (r2) ([3]; room temperature water bath) [mM⁻¹ s⁻¹] | peri-prostatic cobalt concentration by 60 minutes ([4]; high dose group (10%), 4 of 5 animals) | cobalt in kidney tissue ([4]; low dose group (1%)) | cobalt in plasma ([4]; low dose group (1%)) | effect on transcriptional activity of androgen receptor (androgen receptor)
CC(=O)N[C@@H](CS)C(=O)O.[Cl][Co][Cl] [CoCl2-NAC, cobalt-dichloride-N-acetyl cysteine] | No toxicologically-important dose-related alterations | no histopathologic lesions | No test article-related morbidity or mortality | 10 | No test article-related adverse clinical signs | well visualized | could not be visualized | increased signal | highest signal | 1.21±0.29 | 0.093 ± 0.022 | 0.105 ± 0.01 | not quantifiable | No cobalt was measurable | no measurable cobalt | 
CC(C)(O)C(=O)Nc1ccc([N+](=O)[O-])c(C(F)(F)F)c1 [hydroxyflutamide] |  |  |  |  |  |  |  |  |  |  |  |  |  |  |  | enhance the transcriptional activity
